Assay [1] relates to murine CD8+ T cells stimulated with peptide-pulsed T2 cells. In words: IFN-γ ELISPOT after peptide vaccination of HLA-A*0201-transgenic mice. Format: in vivo. The note with it: mice immunized with mixture of 100 μg of each peptide in PBS:Montanide ISA 51, 3 weekly vaccinations; CD8+ T cells stimulated with the same epitope on T2 cells; FIG. 1. The source says: To further validate the identified HER-3-derived peptide epitopes (SEQ ID NO: 1 and SEQ ID NO: 3), we vaccinated HLA-A*0201-transgenic mice with these peptides. Female CB6F1-Tg(HLA-A*0201/H2-K^b) A*0201 mice were purchased from Charles River Laboratories (Raleigh, N.C.). These animals carry a transgene consisting of fragments of the human HLA-A*0201 gene and mouse H2-K^b gene which encodes a chimeric class I molecule consisting of the human HLA-A2.1 leader, α1 and α2 domains ligated to the murine α3, transmembrane and cytoplasmic H2-K^b domain Mice were maintained in a specific pathogen-free environment. All mice were used at 8 to 12 weeks of age. Animals were housed in a specific pathogen-free environment at the animal facility of the DUKE University Medical Center. All mice used in this study were cared for in accordance with the Guide for Humane care and use of Laboratory Animals published by the National Institutes of Health. All the animal experimental protocols were approved by the Duke University Medical Center Institutional Animal Care and Use Committee.
Mice were immunized with a mixture of 100 μg of each peptide emulsified in PBS:Montanide ISA 51 (1:1) (SEPPIC, France). […]
ELISPOT assays were performed without re-stimulation of cells. […] Spots of the dried plate were counted using an ImmunoScan ELISPOT reader (C.T.L., Cellular Technology Ltd.).

Assay [2] has as its system HLA-A*0201-positive- and HER3-positive MCF-7 cells. In words: Human CTL (51Cr release) assay on MCF-7 target cells. The note with it: effector to target ratio 25 to 1; for killing of MCF-7 cells by peptide-induced CTL: CTL induced with peptide-loaded (10 μM) human DCs, unloaded MCF-7 targets, FIGS. 2A-2B. The class given is cell-based. On the procedure: (§1) Immature human DCs (Dendritic cells) were loaded for 2 hours at 10 μM with peptides, washed and then co-cultured with untouched autologous T cells (isolated via magnetic bead-based separation) at a DC to T-cell ratio of 1:20 in complete RPMI media supplemented with 12.5 μg/mL pIC, (polyinosinic-polycytidylic acid, Sigma) and 1.0 μg/mL recombinant CD40L plus 1.0 μg/mL Enhancer (Alexis Biochemicals). 20 U/ml of recombinant human Interleukin-2 (IL-2) were added after 3 days and every other day thereafter. Cells were re-stimulated twice after 7 days (DC to T cell ratio of 1:10) and analyzed for cytolytic activity 10 days after the last re-stimulation.
(§2) 2×10^6 target cells were harvested, washed, counted, and labeled with 100 μCi of Na2^51CrO4 (Amersham) in 0.5 ml complete RPMI at 37° C. for 1.5 h. Exogenous loading of cells with 10 μM synthetic peptide was performed simultaneously with labeling reactions. CTLs (untouched CD8^+ T cells isolated via magnetic-bead-based techniques (Miltenyi Biotec)) were washed, counted, and diluted to the desired density in complete RPMI 1640 and plated in duplicate wells in a round-bottomed, 96-well plate. Target cells were washed three times, resuspended in complete RPMI and incubated at 37° C. and 5% CO2. After 1 h, cells were washed one more time, diluted to 10^4 cells/ml and co-incubated with CTLs at indicated effector to target ratio of 25 to 1. The plates were spun briefly at 800×g and incubated for 4-5 h at 37° C. Supernatants were harvested and counted in a gamma counter. Duplicate wells were averaged, and the percentage of specific lysis was calculated as: […]

Assay [3] deals with HLA-A*0201-positive, but HER3-negative LNCaP cells. In words: Human CTL (51Cr release) assay on LNCaP target cells. The class given is cell-based. The note with it: effector to target ratio 25 to 1, FIG. 2B. On the procedure: as §1
as §2, with “After 1 h, cells were washed one more time, diluted to 10^4 cells/ml and co-incubated with CTLs at indicated effector to target ratio of 25 to 1. The plates were spun briefly at 800×g and incubated for 4-5 h at 37° C.” left out

Two sequences from patent US10487143B2, “Vaccines against HER3 antigens and methods of using the same” (Duke University, priority 2016, dated 2019) can be followed below.

Consider “VMVKCWMIDENI (Synthetic HER3 Antigen 3) [HER3943-954]”, for which the “induction of epitope-specific CD8+ T cells producing IFN-γ (ELISPOT)” value in assay [1] is given as “induced epitope-specific CD8^+ T cells”. In assay [2], the “killing of MCF-7 cells by peptide-induced CTL” value is “killed MCF-7 cells efficiently”. In addition, the “killing of epitope-loaded MCF-7 cells by peptide-induced CTL” value in assay [2] (target cells loaded with 10 μM HER3943-954, FIG. 2B) is reported as “cytolytic activity could further be enhanced”. In assay [3] (LNCaP targets loaded with 10 μM HER3943-954), the “killing of epitope-loaded LNCaP cells by peptide-specific CTL” value is reported as “Killing”. Also, in assay [3] (unloaded HER3-negative LNCaP targets), the “killing of LNCaP cells by peptide-specific CTL” value is “did not kill”.

Consider “LAEVPDLLE (Synthetic HER3 Antigen 1) [HER3917-925]”, for which, in assay [1], the “induction of epitope-specific CD8+ T cells producing IFN-γ (ELISPOT)” value is on record as “failed to induce CD8^+ T cells that produced IFN-γ”. Also, the “killing of MCF-7 cells by peptide-induced CTL” value in assay [2] is “failed to induce HERS-specific CTLs”.
